# In patent US11467160B2, “Method of therapy selection for patient suffering from glioblastoma” (INSERM (Institut National de la Santé et de la Recherche …, priority 2017, dated 2022):
# Entries after “also recorded” stand apart in the source; their conditions may differ.
# Assays:
# GBM patients [1] = conditions: combined with temozolomide (Stupp 2014); cited from earlier work
# U87 CD90 cells [2] = assay: Boyden chamber migration assay, U87 CD90 cells; format: cell-based, human; conditions: for U87 CD90 cell migration: 10 μM inhibitor, 15 minutes pre-incubation, kept during 24-hours Boyden chamber assay
# Protocol: (§1) FIG. 3: CD90 signals through SRC, FAK and RhoA molecules and CD90 dependent migration is blocked by dasatinib in vitro and in vivo. Parental (wt), control (shCTR #), CD90-down expressing (shCD90 #, n=3) U251 cells; as well as parental (wt), control (CTR #) and CD90 expressing (CD90 #, n=3) U87 cells were cultured at low cell density, lysed and analyzed by Western-blot for phosphoSRC, SRC, phosphoFAK, FAK and β-actin expression. Protein phosphorylation levels were calculated as described in Materials and Methods part (A). CD90low (black) and CD90high (blank) RNS (n=12, square symbol) and RADH (n=6, circle symbol) cells were analyzed by Western-blot for phosphoSRC, SRC, phosphoFAK, FAK and β-actin expression. Protein phosphorylation levels were calculated in (B). CD90-expressing parental U251 and CD90 #1 U87 cells were tested in a 24-hours Boyden chamber migration assay as described in FIG. 2 in the presence of DMSO (as control), PP2, dasatinib (both SRC inhibitors), Y15 (FAK inhibitor) and Y-27632 (ROCK inhibitor) (C). CD90-expressing parental U251 and CD90 #1 U87 cells were transfected without (siØ), with siRNA GL2 (control) or siRNA RhoA during 48 hours, and tested in a 24-hours Boyden chamber migration assay (D). RhoA expression was tested by Western-blot (D). Migration was given by the number of migrated cells obtained per field (C and D). CD90high RNS (n=4, square symbol) and RADH (n=4, circle symbol) cells were tested in a 24-hours Boyden chamber migration assay in the presence of DMSO or dasatinib (E). Representative fields are shown in (E). CD90 expressing U87 cells were orthotopically implanted in immunocompromised mice brain. One week after injection, mice were fed with control vehicle (n=7) or dasatinib (40 mg/kg/day, n=7) for 20 days. Control and dasatinib-treated mice were sacrificed 28 days after injection. Brains were collected and sections were analyzed after H&E staining (F). (*): p<0.05; (**): p<0.01; (***): p<0.001.
# Preparation of CD90 knocked-down U251 and CD90 expressing U87 GBM cell lines—U251 cells were transfected with pLKO.1-puro plasmids containing shRNA constructs targeting CD90 mRNA and targeting non-mammalian mRNA (Sigma-Aldrich) using the Lipofectamine 2000 reagent (Life Technologies, St Aubin, France) according to the manufactor's instructions. After one week of culture under the selective antibiotic puromycin used at 10 μg/ml, transfected U251 cells were amplified and then cloned in 96-well plates at 0.1 cell/well. CD90 knocked-down U251 cell lines were expanded and selected for their decreased expression of CD90. U87 cells were transfected with CD90 cDNA (GeneWiz, Sigma-Aldrich) cloned into the pLKO.1-puro plasmid with EcoRI and BamHI enzymes using the Lipofectamine 2000 reagent. […]
# [3] = system: CD90-expressing parental U251 cells; assay: Boyden chamber migration assay, parental U251 cells; format: cell-based, human; conditions: for U251 cell migration: 10 μM inhibitor, 15 minutes pre-incubation, kept during 24-hours Boyden chamber assay
# Protocol: as §1
# Boyden chamber migration assay—Parental, controls and transfected U251 and U87 cell lines were washed in DMEM, placed in Boyden chambers (10^5 cells/chamber in DMEM) that were placed in DMEM 20% FBS and incubated at 37° C. for 24 hours. After 24 hours, Boyden chambers were washed in PBS and cells were fixed in PBS 0.5% paraformaldehyde. Non-migrated cells inside the chambers were removed and cells were then stained with Giemsa (RAL Diagnostics, Martillac, France). After washes in PBS, pictures of 5 different fields were taken. Migration was given by the mean of number of migrated cells observed per field. […]
# recurrent GBM patients = conditions: Phase II, with temozolomide (Groves 2002); cited from earlier work
# GBM patients [4] = conditions: phase III clinical trial (Levin 2006); cited from earlier work
# [5] = system: bevacizumab-treated recurrent GBM patients; conditions: phase II trial (Lassman 2015); cited from earlier work
# U87 CD90 cells [6] = assay: Orthotopic xenograft mouse model with U87 CD90 cells; format: in vivo, mice
# Protocol: as §1, with “CD90high RNS (n=4, square symbol) and RADH (n=4, circle symbol) cells were tested in a 24-hours Boyden chamber migration assay in the presence of DMSO or dasatinib (E). Representative fields are shown in (E). CD90 expressing U87 cells were orthotopically implanted in immunocompromised mice brain. One week after injection, mice were fed with control vehicle (n=7) or dasatinib (40 mg/kg/day, n=7) for 20 days. Control and dasatinib-treated mice were sacrificed 28 days after injection.” left out, “(*): p<0.05; (**): p<0.01; (***): p<0.001.” left out
# Orthotopic mouse model—Eight-weeks old male Balb/c NOD-SCID mice (Janvier, Saint Berthevin, France) were housed in an animal care unit authorized by the French Ministries of Agriculture and Research (Biosit, Rennes, France—Agreement No. B35-238-40). […] Mice were daily clinically monitored and sacrificed 28 days after implantation. […] Tumor burden was compared in the different groups of mice and analyzed using ImageJ software. […]
# To evaluate the CD90-dependent effects of dasatinib in vivo, U87 CD90 cells were used in an orthotopic xenograft mouse model. […] Mice were analyzed using MRI 28 days post-injection and were sacrificed. […]
# glioma cell invasion = conditions: preclinical phase; cited from earlier work
# CD90high RNS cells = assay: Viability of CD90high RNS cells; format: cell-based, human
# [7] = system: primary CD90high GBM lines; assay: Boyden chamber migration assay, primary CD90high GBM lines (RNS and RADH); format: cell-based, human; conditions: CD90high RNS (n=4) and RADH (n=4) cells, 24-hours Boyden chamber assay
# Protocol: FIG. 3: CD90 signals through SRC, FAK and RhoA molecules and CD90 dependent migration is blocked by dasatinib in vitro and in vivo. Parental (wt), control (shCTR #), CD90-down expressing (shCD90 #, n=3) U251 cells; as well as parental (wt), control (CTR #) and CD90 expressing (CD90 #, n=3) U87 cells were cultured at low cell density, lysed and analyzed by Western-blot for phosphoSRC, SRC, phosphoFAK, FAK and β-actin expression. Protein phosphorylation levels were calculated as described in Materials and Methods part (A). CD90low (black) and CD90high (blank) RNS (n=12, square symbol) and RADH (n=6, circle symbol) cells were analyzed by Western-blot for phosphoSRC, SRC, phosphoFAK, FAK and β-actin expression. Protein phosphorylation levels were calculated in (B). […] Brains were collected and sections were analyzed after H&E staining (F). […]
# Tumor specimens and cell culture—GBM samples were obtained after informed consent from patients admitted to the neurosurgery department at Rennes University Hospital for surgical resection in accordance with the local ethic committee. […] The extent of surgery was evaluated with an enhanced magnetic resonance imaging (MRI) performed within 24 hours after the resection. […]
# [8] = 1 μM, 24-hours Boyden chamber assay
# [9] = dasatinib 40 mg/kg fed daily for 20 days from one week post-implantation, 28 days post-injection
smiles,measurement,setting,value
CC(C)[C@H]1C(=O)N[C@@H](CCCN=C(N)N)C(=O)NCC(=O)N[C@@H](CC(=O)O)C(=O)N[C@H](Cc2ccccc2)C(=O)N1C [Cilengitide],Effects on GBM patients,GBM patients [1],limited effects
C[C@@H](N)[C@H]1CC[C@H](C(=O)Nc2ccncc2)CC1 [Y27632],inhibition at 10 µM,"U87 CD90 cells [2]; Homo sapiens, U87 CD90 cells, 10 μM, 24-hours Boyden chamber assay, read-out: Migration inhibition (reduction)",76%
same,inhibition at 10 µM,"[3]; Homo sapiens, U-251, U251 cells, 10 μM, 24-hours Boyden chamber assay, read-out: Migration inhibition (reduction)",53%
Cl.Cl.Cl.Cl.Nc1cc(N)c(N)cc1N [Y15],Effect on the migration of U87 CD90 cells,U87 CD90 cells [2]; [8],no or limited effect
same,Effect on the migration of U251 cells,[3]; [8],no or limited effect
CNC(=O)[C@@H](NC(=O)[C@H](CC(C)C)[C@H](O)C(=O)NO)C(C)(C)C [marimastat],Effects on recurrent GBM patients,recurrent GBM patients,encouraging effects
same,Patient survival,GBM patients [4],failed to improve
CC(C)(C)n1nc(-c2ccc(Cl)cc2)c2c(N)ncnc21 [PP2],U87 CD90 cell migration,U87 CD90 cells [2],dramatically reduced
same,U251 cell migration,[3],dramatically reduced
"Cc1nc(Nc2ncc(C(=O)Nc3c(C)cccc3Cl)s2)cc(N2CCN(CCO)CC2)n1 [dasatinib, N-(2-chloro-6-methylphenyl)-2-[[6-[4-(2-hydroxyethyl)piperazin-1-yl]-2-methylpyrimidin-4-yl]amino]-1,3-thiazole-5-carboxamide]",U87 CD90 cell migration,U87 CD90 cells [2],dramatically reduced
same,Improvement of bevacizumab-treated recurrent GBM patients,[5],failed to improve
same,CD90 tumor migration/invasion properties in vivo,"U87 CD90 cells [6]; U87 CD90 orthotopic xenograft, dasatinib 40 mg/kg",dramatically reduces; also recorded: blocks; also recorded: inhibits
same,"Mice with clear encapsulated tumors with regular edges, H&E staining",U87 CD90 cells [6]; [9],4 out of 7
same,"Mice with clear encapsulated tumors with regular edges, MRI",U87 CD90 cells [6]; [9],3 out of 4
same,Inhibiting bevacizumab-induced glioma cell invasion,glioma cell invasion,promising effect
same,U251 cell migration,[3],dramatically reduced
same,Viability of CD90high RNS cells,CD90high RNS cells,affects viability
same,Migration of primary CD90high GBM lines,[7],dramatically reduced
